In patent US4069379A, “Semi-synthetic oleandomycins” (Pfizer Inc., priority 1976, dated 1978):
≈ marks a conversion by molar mass, not a printed value. Read-outs that look alike come from different tables or passages of the source.

Experiments:
[1] = system: Staph. aureus 01A400R; assay: minimum inhibitory concentration (MIC), Staph. aureus 01A400R; assay type: cell-based; settings: Staphylococcus aureus, read-out: MIC Values, Staph. aureus 01A400R
From the text: (§1) The oleandomycin compounds of the present invention are effective in inhibiting the growth of microorganisms, especially Gram-positive microorganisms. The high activity against Gram-positive organisms shown by these compounds is contrasted in some respects with the lower activity against Gram-negative organisms. The following table illustrates the in vitro antibiotic spectrum of the compounds of the instant invention. The tests were run according to the "minimum inhibitory concentration"(MIC) procedure of Ericsson and Sherris [H. M. Ericsson and J. C. Sherris, Acta. Pathol. Microbiol. Scand. Suppl., 217B 64 (1971)].

[2] = system: Salm. typhm. 58D009; assay: minimum inhibitory concentration (MIC), Salm. typhm. 58D009; assay type: cell-based; settings: in vitro; Salm. typhm. 58D009, Gram-negative
From the text: as §1

[3] = system: B. subtilis; assay: minimum inhibitory concentration (MIC), B. subtilis; assay type: cell-based; settings: Bacillus subtilis, in vitro, Gram-positive
From the text: as §1

[4] = system: Klebsiella pn. 53A009; assay: minimum inhibitory concentration (MIC), Klebsiella pn. 53A009; assay type: cell-based; settings: in vitro; Klebsiella pn. 53A009, Gram-negative
From the text: as §1

[5] = system: Staph. aureus 01A005; assay: minimum inhibitory concentration (MIC), Staph. aureus 01A005; assay type: cell-based; settings: Staphylococcus aureus; in vitro; Staph. aureus 01A005, Gram-positive
From the text: as §1

[6] = system: E. coli 51A266; assay: minimum inhibitory concentration (MIC), E. coli 51A266; assay type: cell-based; settings: Escherichia coli; in vitro; E. coli 51A266, Gram-negative
From the text: as §1

[7] = system: Staph. aureus 01A005; assay: protection against in vivo infection of mice infected with Staph. aureus 01A005; settings: subcutaneous or oral administration to mice infected with Staph. aureus 01A005; compared with natural oleandomycin
Procedure: The ability of the compounds of the present invention to protect against in vivo infections was determined by subcutaneous or oral administration to mice infected with Staph. aureus 01A005. Using the test method described by Retsema [J. A. Retsema et al., Antimicr.

[8] = in vitro, Staph. aureus 01A400R, Gram-positive

MIC [1, 8] [µg/mL]	MIC [2] [µg/mL]	MIC [3] [µg/mL]	MIC [4] [µg/mL]	MIC [5] [µg/mL]	MIC [6] [µg/mL]	Structure (SMILES)	protection against infection [7]	MIC ([1]; 01A400R) [µg/mL]
12.5 (≈ 15.4 µM)	> 200	3.12 (≈ 3.84 µM)	> 200	1.56 (≈ 1.92 µM)	> 200	COC1CC(OC2C(C)C(=O)OC(C)C(C)C(OC(C)=O)C(C)C(=O)C3(CC3)CC(C)C(OC3OC(C)CC(N(C)C)C3OC(C)=O)C2C)OC(C)C1OC(C)=O (centres unmarked) [Compound III Ac Ac Ac, 8,8a-Deoxy-8,8a-Cyclopropyl-2',4",11-Triacetyloleandomycin]		
200 (≈ 235 µM)	> 200	25 (≈ 29.3 µM)	> 200	25 (≈ 29.3 µM)	> 200	C=C1CC(C)C(OC2OC(C)CC(N(C)C)C2OC(C)=O)C(C)C(OC2CC(OC)C(OC(C)=O)C(C)O2)C(C)C(=O)OC(C)C(C)C(OC(=O)C(F)(F)F)C(C)C1=O (centres unmarked) [Compound II Ac Ac drawing 7, 8,8a-Deoxy-8,8a-Methylene-2',4"-Diacetyl-11-Trifluoroacetyloleandomycin]		
> 200	> 200	3.12 (≈ 4.13 µM)	> 200	3.12 (≈ 4.13 µM)	> 200	C=C1CC(C)C(OC2OC(C)CC(N(C)C)C2OC(C)=O)C(C)C(OC2CC(OC)C(O)C(C)O2)C(C)C(=O)OC(C)C(C)C(OC(C)=O)C(C)C1=O (centres unmarked) [Compound II Ac H Ac, 8,8a-Deoxy-8,8a-Methylene-2',11-Diacetyloleandomycin]		
1.56 (≈ 2.27 µM)	> 200	0.39 (≈ 0.569 µM)	> 200	0.2 (≈ 0.292 µM)	> 200	COC1CC(OC2C(C)C(=O)OC(C)C(C)C(O)C(C)C(=O)C3(CC3)CC(C)C(OC3OC(C)CC(N(C)C)C3O)C2C)OC(C)C1O (centres unmarked) [Compound III H H H, 8,8a-Deoxy-8,8a-Cyclopropyloleandomycin]	protection against infection which was comparable to natural oleandomycin	
3.12 (≈ 4.05 µM)	> 200	0.78 (≈ 1.01 µM)	> 200	0.2 (≈ 0.26 µM)	> 200	COC1CC(OC2C(C)C(=O)OC(C)C(C)C(OC(C)=O)C(C)C(=O)C3(CC3)CC(C)C(OC3OC(C)CC(N(C)C)C3OC(C)=O)C2C)OC(C)C1O (centres unmarked) [Compound III Ac H Ac, 8,8a-Deoxy-8,8a-Cyclopropyl-2',11-Diacetyloleandomycin]		
25 (≈ 37.2 µM)			> 200	6.25 (≈ 9.3 µM)	> 200	C=C1CC(C)C(OC2OC(C)CC(N(C)C)C2O)C(C)C(OC2CC(OC)C(O)C(C)O2)C(C)C(=O)OC(C)C(C)C(O)C(C)C1=O (centres unmarked) [Compound II H H H, 8,8a-Deoxy-8,8a-Methylene-Oleandomycin]	protection against infection which was comparable to natural oleandomycin	
200 (≈ 251 µM)	> 200		> 200	25 (≈ 31.3 µM)	> 200	C=C1CC(C)C(OC2OC(C)CC(N(C)C)C2OC(C)=O)C(C)C(OC2CC(OC)C(OC(C)=O)C(C)O2)C(C)C(=O)OC(C)C(C)C(OC(C)=O)C(C)C1=O (centres unmarked) [Compound II Ac Ac Ac, 8,8a-Deoxy-8,8a-Methylene-2',4",11-Triacetyloleandomycin]		

Structure (SMILES)	MIC [1, 8] [µg/mL]	MIC [2] [µg/mL]	MIC [3] [µg/mL]	MIC [4] [µg/mL]	MIC [5] [µg/mL]	MIC [6] [µg/mL]	protection against infection [7]	MIC ([1]; 01A400R) [µg/mL]
COC1CC(OC2C(C)C(=O)OC(C)C(C)C(O[Si](C)(C)C)C(C)C(=O)C3(CC3)CC(C)C(OC3OC(C)CC(N(C)C)C3OC(C)=O)C2C)OC(C)C1OC(C)=O (centres unmarked) [Compound III Ac Ac Me3 Si, 8,8a-Deoxy-8,8a-Cycloproyl-2',4"-Diacetyl-11-Trimethylsilyloleandomycin]		> 200	12.5 (≈ 14.8 µM)	> 200	3.12 (≈ 3.7 µM)	> 200		> 200
